Assay results published in article PMC11370452 (bioRxiv, 2024).

What was measured:
GABABR = GABABR (Rattus norvegicus, UniProt O88871+Q9Z0U4); assay type: cell-based; conditions: with Gαi bystander BRET sensor expression versus control
MOR = conditions: database annotation; cited from earlier work

Sequence of GABABR (Q9Z0U4 17-960 limits assumed): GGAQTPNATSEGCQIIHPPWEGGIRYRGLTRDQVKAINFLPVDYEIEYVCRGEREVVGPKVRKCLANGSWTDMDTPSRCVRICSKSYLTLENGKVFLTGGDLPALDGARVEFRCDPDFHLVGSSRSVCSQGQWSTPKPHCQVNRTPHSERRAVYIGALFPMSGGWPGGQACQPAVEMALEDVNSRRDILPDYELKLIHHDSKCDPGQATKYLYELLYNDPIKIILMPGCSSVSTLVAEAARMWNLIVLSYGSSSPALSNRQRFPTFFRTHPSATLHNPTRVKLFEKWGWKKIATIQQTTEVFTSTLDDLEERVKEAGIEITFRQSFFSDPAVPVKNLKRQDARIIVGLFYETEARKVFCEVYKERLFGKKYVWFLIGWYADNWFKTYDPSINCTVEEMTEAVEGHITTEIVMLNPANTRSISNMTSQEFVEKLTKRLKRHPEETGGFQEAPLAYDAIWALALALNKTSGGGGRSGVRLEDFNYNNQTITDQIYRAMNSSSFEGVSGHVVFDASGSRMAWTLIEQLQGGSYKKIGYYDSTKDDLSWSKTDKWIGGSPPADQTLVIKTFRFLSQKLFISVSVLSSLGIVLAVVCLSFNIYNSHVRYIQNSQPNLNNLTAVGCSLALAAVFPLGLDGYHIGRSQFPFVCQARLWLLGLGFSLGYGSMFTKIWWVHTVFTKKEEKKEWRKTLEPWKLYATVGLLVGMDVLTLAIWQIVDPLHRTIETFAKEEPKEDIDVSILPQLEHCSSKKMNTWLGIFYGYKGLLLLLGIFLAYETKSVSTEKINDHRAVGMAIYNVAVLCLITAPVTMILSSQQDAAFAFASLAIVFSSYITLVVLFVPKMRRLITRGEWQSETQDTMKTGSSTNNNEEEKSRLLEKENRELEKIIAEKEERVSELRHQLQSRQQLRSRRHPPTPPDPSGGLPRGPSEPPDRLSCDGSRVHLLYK
Sequence of GABABR (O88871 41-940 partner): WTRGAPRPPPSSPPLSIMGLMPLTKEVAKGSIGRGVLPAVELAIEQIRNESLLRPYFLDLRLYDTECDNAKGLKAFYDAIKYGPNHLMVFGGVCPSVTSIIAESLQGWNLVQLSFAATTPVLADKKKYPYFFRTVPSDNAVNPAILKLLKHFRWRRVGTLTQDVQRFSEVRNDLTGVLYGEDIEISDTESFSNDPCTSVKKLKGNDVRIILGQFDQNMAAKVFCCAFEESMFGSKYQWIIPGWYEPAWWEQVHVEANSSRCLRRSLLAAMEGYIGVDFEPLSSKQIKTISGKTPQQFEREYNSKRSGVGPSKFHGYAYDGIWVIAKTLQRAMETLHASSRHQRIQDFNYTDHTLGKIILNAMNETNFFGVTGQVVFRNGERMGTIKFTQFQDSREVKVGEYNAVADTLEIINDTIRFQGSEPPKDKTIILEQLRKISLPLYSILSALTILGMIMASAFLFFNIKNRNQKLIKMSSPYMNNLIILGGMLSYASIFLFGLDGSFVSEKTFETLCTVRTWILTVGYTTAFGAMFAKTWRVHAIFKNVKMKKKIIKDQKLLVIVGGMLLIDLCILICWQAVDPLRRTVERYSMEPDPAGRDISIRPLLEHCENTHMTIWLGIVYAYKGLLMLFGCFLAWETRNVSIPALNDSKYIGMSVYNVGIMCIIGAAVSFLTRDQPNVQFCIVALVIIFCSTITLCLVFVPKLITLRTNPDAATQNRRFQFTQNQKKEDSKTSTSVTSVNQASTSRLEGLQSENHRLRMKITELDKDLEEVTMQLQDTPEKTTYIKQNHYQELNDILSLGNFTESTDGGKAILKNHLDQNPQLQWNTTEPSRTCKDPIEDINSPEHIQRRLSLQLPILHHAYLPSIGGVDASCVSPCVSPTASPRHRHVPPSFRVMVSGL

Compound	increase in the IC50 of inhibition by GABA (GABABR)	Agonist efficacy, MOR: IUPHAR annotation (MOR)
NCCCC(=O)O [GABA]	~ 4 fold	–
Leu-Enkephalin	–	partial agonist
